Here are results for 1 molecule from patent publication US20100063156A1, “ANANDAMIDE” (priority 2006, published 2010).

One assay has as its system test animals. The settings on record: introduced into the blood stream; neither decreased nor increased food intake; cited from earlier work.
For a further assay, the system named is rats. To be noted: anandamide introduced by injection (Williams & Kirkham 2002); cited from earlier work.
The test system of another assay is Sprague-Dawley rats. The assay is described as follows: Food intake in rats after intragastric infusion of anandamide. Format: in vivo, rat. To be noted: for 9-h cumulative food intake: intragastric infusion in sunflower oil, rats food-deprived 15 h, control 27.1 g. Here is the method:
An experiment was conducted to measure the effect of different levels of anandamide intake on food intake in rats. Thirteen adult male Sprague-Dawley rats (Charles River, Germany) were surgically equipped with a chronic gastric cannula. Animals were individually housed in plastic cages (42×22×36 cm) with stainless steel grid floors in a temperature-controlled (22±2° C.) room. The 12:12-h light-dark cycle was inversed (lights off 09:00 h).
Rats had free access to water and restricted access to ground extruded feed (No. 3436, Provimi Kliba-nafag, Kaiseraugst, Switzerland). To prevent spoilage of food, it was placed in cups at the end of a tunnel (5×10×30 cm) that protruded from the side of the cage, with its bottom 5 cm above the cage floor. Food cups were mounted on electronic balances (Mettler PM 3000, Switzerland) that were interfaced with a computer (Olivetti M 300, Germany). Weights of the food cups were recorded the every 30 s, enabling continuous measurement of spontaneous feeding patterns. Anandamide (98% purity, dissolved in ethanol) was obtained from Cayman Chemical Company, Michigan, USA). It was stored deep-frozen, until the experiment. Than the proper quantity was mixed into sunflower oil.
Before starting the experimental period, rats (394±7 g) were adapted to the restricted food access. One day prior to the test, they were also adapted to infusion of sunflower oil. The experimental period lasted five consecutive days. During the experiment, rats were deprived from food each day for 15 h (18.00-9.00 h). […] Each of these doses was given to three rats. One rat was excluded from the experiment after 2 days, and a spare animal was included.

Regarding `CCCCC/C=C\C/C=C\C/C=C\C/C=C\CCCC(=O)NCCO` [anandamide, arachidonyl-ethanolamide], the voluntary food intake result with test animals was “ineffective”. Moreover, the “appetite / feeding effect” value with rats is listed as “Appetite stimulating effects were found”. Besides, the “9-h cumulative food intake” value came out at 25.8 g with Sprague-Dawley rats (2.5 mg anandamide/d), 27.6 g with Sprague-Dawley rats (5.0 mg anandamide/d) and 23.0 g with Sprague-Dawley rats (7.5 mg anandamide/d). Besides, the “food intake compared to the control” value is “did not affect food intake” in the assay with Sprague-Dawley rats (2.5 mg/d, intragastric); “reduced food intake significantly” with Sprague-Dawley rats (5.0 mg, 3 through 6 hours after infusion, P<0.001, difference disappeared later); “lower food intake persisted until 9 h post-infusion” in the assay on Sprague-Dawley rats (7.5 mg/d, until 9 h post-infusion). Further, the “food intake calculated as a mean over the 9-h period” value with Sprague-Dawley rats (5.0 mg versus 0 or 2.5 mg anandamide) and in the assay with Sprague-Dawley rats (7.5 mg versus 0 or 2.5 mg anandamide) was “significantly lower” each time. For the same molecule, the “9-h cumulative food intake, significance versus other treatments” value in the assay with Sprague-Dawley rats (7.5 mg anandamide/d versus 0, 2.5 and 5.0 mg) is given as “significantly different from the other treatments”.
